Results on 25 compounds are retold here after ChEMBL document CHEMBL3272338, “Bis-basic-substituted polycyclic aromatic compounds. A new class of antiviral agents. 8. Bis-basic derivatives of carbazole, dibenzofuran, and dibenzothiophene” (1977).

Assay type in all cases: functional
Assay [1] concerns Encephalomyocarditis virus. Put plainly: Antiviral activity against Encephalomyocarditis virus infected in CF-1 mouse assessed as host survival time ratio at 250 mg/kg, po administered via gavage as single dose at 22 to 28 hrs before virus inoculation.
The test system of assay [2] is Encephalomyocarditis virus. Put plainly: Antiviral activity against Encephalomyocarditis virus infected in CF-1 mouse assessed as host survival time ratio at 50 mg/kg, sc administered 28, 22, 2 hrs before and 2 hrs after virus inoculation. The settings on record: route subcutaneous.
The test system of assay [3] is Encephalomyocarditis virus. Put plainly: Antiviral activity against Encephalomyocarditis virus infected in CF-1 mouse assessed as host survival time ratio at 10 mg/kg, sc administered 28, 22, 2 hrs before and 2 hrs after virus inoculation. The conditions noted are these: route subcutaneous.
Assay [4] has as its system Encephalomyocarditis virus. Put plainly: Antiviral activity against Encephalomyocarditis virus infected in CF-1 mouse assessed as host survival time ratio at 250 mg/kg, sc administered 28, 22, 2 hrs before and 2 hrs after virus inoculation. The settings on record: route subcutaneous.
The test system of assay [5] is Encephalomyocarditis virus. Put plainly: Antiviral activity against Encephalomyocarditis virus infected in CF-1 mouse assessed as host survival time ratio at 50 mg/kg, po administered via gavage at 28, 22, 2 hrs before and 2 hrs after virus inoculation.

Take `CC(CN(C)C)Oc1ccc2oc3ccc(OC(C)CN(C)C)cc3c2c1.O=C(O)CC(O)(CC(=O)O)C(=O)O` (stereo not given): the Ratio in assay [1] is reported as 0.84; in assay [2], 1.08; in assay [3], 0.94; in assay [4] it was 0.9; in assay [5] it was 0.84.
For the compound `Cl.c1cc2oc3ccc(OCCN4CCCC4)cc3c2cc1OCCN1CCCC1`, the Ratio in assay [1] amounted to 1; in assay [2] it was 1.04; in assay [3] it was 1.08; in assay [4] it was 0.88; in assay [5], 0.98.
For `CCN(CC)CCOc1ccc2c(c1)c1cc(OCCN(CC)CC)ccc1n2CC.Cl` the same measures were 0.92, 1.13, 1.05, 0.85 and 0.87.
The like results for `CCn1c2ccc(OCCN3CCOCC3)cc2c2cc(OCCN3CCOCC3)ccc21` were, in that order, 0.88, 1.08, 0.92, 1.02 and 0.86.
For the compound `CCCCN(CCCC)CCCOC(=O)c1ccc2sc3ccc(C(=O)OCCCN(CCCC)CCCC)cc3c2c1.Cl`, the Ratio was determined as 0.93 in assay [1]; 1.48 in assay [2]; 1.29 in assay [3]; 2.43 in assay [4]; 0.93 in assay [5].
Turning to `CN(C)CCCOC(=O)c1ccc2oc3ccc(C(=O)OCCCN(C)C)cc3c2c1.Cl`, the Ratio in assay [1] is reported as 1.07; in assay [2] it was 1.26; in assay [3] it was 1.19; in assay [4], 1.36; in assay [5], 1.07.
Regarding `Cl.c1cc2sc3ccc(OCCN4CCCCC4)cc3c2cc1OCCN1CCCCC1`, the Ratio stood at 1.02 in assay [1]; 1.57 in assay [2]; 1.09 in assay [3]; 1.3 in assay [4]; 0.98 in assay [5].
The like results for `CN(C)CCCC(=O)c1ccc2sc3ccc(C(=O)CCCN(C)C)cc3c2c1.Cl` were, in that order, 0.95, 1.66, 1.09, 1.09 and 1.
For `Cl.c1cc2sc3ccc(OCCCN4CCCCC4)cc3c2cc1OCCCN1CCCCC1` the same measures were 1.06, 1.94, 1.34, 0.77 and 0.98.
As for `O=C(CCCN1CCCCC1)c1ccc2sc3ccc(C(=O)CCCN4CCCCC4)cc3c2c1`, the Ratio in assay [1] is listed as 1.22; in assay [2] it was 1.9; in assay [3], 1.1; in assay [4], 0.61; in assay [5], 1.16.
The like results for `Cl.O=C(CCCN1CCOCC1)c1ccc2c(c1)sc1ccc(C(=O)CCCN3CCOCC3)cc12` were, in that order, 0.94, 1.33, 1.13, 1.98 and 0.9.
The like results for `O=C(CCCN1CCCCC1)c1ccc2c(c1)sc1ccc(C(=O)CCCN3CCCCC3)cc12` were, in that order, 1.23, 1.71, 1.21, 2.08 and 1.1.
The like results for `CCN(CC)CCOc1ccc2sc3ccc(OCCN(CC)CC)cc3c2c1.O=C(O)/C=C/C(=O)O` were, in that order, 0.86, 1.12, 0.96, 1.32 and 0.88.
Consider `CCn1c2ccc(OCCCN(C)C)cc2c2cc(OCCCN(C)C)ccc21.Cl`, for which the Ratio turned out to be 0.88 in assay [1]; 1.1 in assay [2]; 0.92 in assay [3]; 0.52 in assay [4]; 0.9 in assay [5].
For `CCN(CC)CC(=O)c1ccc2oc3ccc(C(=O)CN(CC)CC)cc3c2c1.Cl` the same measures were 1.65, 1.35, 0.96, 2.17 and 0.96.
In the case of `CC1CCN(CCCC(=O)c2ccc3oc4ccc(C(=O)CCCN5CCC(C)CC5)cc4c3c2)CC1`, the Ratio turned out to be 1.19 in assay [1]; 2.13 in assay [2]; 1.23 in assay [3]; 2.04 in assay [4]; 1.11 in assay [5].
With `O=C(CCCN1CCCCC1)c1ccc2[nH]c3ccc(C(=O)CCCN4CCCCC4)cc3c2c1`, the Ratio in assay [1] is on record as 0.88; in assay [2], 0.96; in assay [3], 1.22; in assay [4], 1; in assay [5], 0.86.
Regarding `O=C(CCCN1CCOCC1)c1ccc2oc3ccc(C(=O)CCCN4CCOCC4)cc3c2c1`, the Ratio was 1.08 in assay [1]; 1.39 in assay [2]; 1 in assay [3]; 1.96 in assay [4]; 1.08 in assay [5].
In the case of `CC1CCN(CCCC(=O)c2ccc3sc4ccc(C(=O)CCCN5CCC(C)CC5)cc4c3c2)CC1`, the Ratio is 1.1 in assay [1]; 1.84 in assay [2]; 1.22 in assay [3]; 1.69 in assay [4]; 1.06 in assay [5].
The like results for `Cl.c1cc2oc3ccc(OCCCN4CCCCC4)cc3c2cc1OCCCN1CCCCC1` were, in that order, 1.02, 1.44, 1.46, 0.63 and 1.02.
The like results for `CCn1c2ccc(OCCN3CCCCC3)cc2c2cc(OCCN3CCCCC3)ccc21.Cl` were, in that order, 1.09, 1.32, 1.16, 1.25 and 1.09.
The like results for `CCN(CC)CCCOC(=O)c1ccc2[nH]c3ccc(C(=O)OCCCN(CC)CC)cc3c2c1.Cl` were, in that order, 1.17, 1.69, 1.04, 1.47 and 1.1.
With `CC(COc1ccc2oc3ccc(OCC(C)CN(C)C)cc3c2c1)CN(C)C.Cl` (stereo not given), the Ratio in assay [1] was found to be 0.92; in assay [2], 1.14; in assay [3], 1.2; in assay [4], 0.57; in assay [5], 0.9.
On to `CC1CCCN(COC(=O)c2ccc3oc4ccc(C(=O)OCN5CCCC(C)C5)cc4c3c2)C1.Cl` (stereo not given), for which the Ratio in assay [1] was found to be 1; in assay [2] it was 1.07; in assay [3] it was 1.07; in assay [4] it was 1.05; in assay [5], 1.03.
Turning to `Cl.O=C(OCCCN1CCCCC1)c1ccc2oc3ccc(C(=O)OCCCN4CCCCC4)cc3c2c1`, the Ratio in assay [1] was determined as 1.02; in assay [2], 1.22; in assay [3], 1.11; in assay [4] it was 0.91; in assay [5], 0.96.
